The source of these data is paper PMC7076385, “Evaluation of the Solid Dispersion System Engineered from Mesoporous Silica and Polymers for the Poorly Water Soluble Drug Indomethacin: In Vitro and In Vivo” (Pharmaceutics, 2020).

Values after ≈ are worked out from the molar mass of the structure shown.

A short description of data set [1]: Solubility studies (crystalline and amorphous solubility, UV analysis). In kind it is physicochemical. Conditions: phosphate buffered saline (PBS), pH 6.8 PBS, 25 °C. On the procedure:
The “crystalline solubility” was measured by the following method. An excess amount of crystal IMC powder was added to 10 mL of pH 6.8 PBS. These mixtures were kept at 25 °C and stirred at 300 rpm for 48 h. Ultracentrifugation was performed at 12,000 rpm and 25 °C for 30 min to separate excess solids using an Optima L-100XP ultracentrifuge (Beckman Coulter Inc., Brea, CA, USA). Then 5 mL of the supernatant was taken for ultraviolet (UV) spectroscopy analysis. All samples were prepared in triplicate.
The solubility of the amorphous IMC in the presence of excipients was also determined by calculating the solution concentration evolved from SDs at 25 °C after 48 h. Briefly, IMC–SDs were prepared by solvent evaporation directly from scintillation vials using a rotary evaporator. Then, 10 mL of pH 6.8 PBS was added. Solution concentration measurements were conducted following the ultraviolet (UV) spectroscopy analysis. The concentration of IMC was calculated with a standard curve built before.

The nature of data set [2]: In vitro dissolution, USP II paddle method. In kind it is physicochemical. Conditions: at 90 min, pH 6.8 PBS. On the procedure:
The optimum ratios of all solid dispersion carriers were selected by drug release experiments in vitro. In vitro dissolution studies on pure IMC and SDs with different carriers were carried out using the United States Pharmacopeia Apparatus II (USP II) paddle method (100 rpm, 37 °C, and 250 mL pH 6.8 phosphate buffer solutions) with a ZRS-8G dissolution tester (Shanghai, China). Ten milligrams of sample powder was placed in the dissolution medium, and 5 mL of pH 6.8 phosphate buffer solution (PBS, artificial intestinal fluid) was withdrawn at pre-designed time intervals (0, 5, 10, 15, 20, 30, 40, 50, 60 and 90 min) prior to filtration. The concentration of samples was analyzed using an UV spectrophotometer (756 PC UV-2200, Shanghai, China) at 320 nm. All measurements were repeated three times.

Data set [3] is described as follows: In vivo pharmacokinetic study after oral administration. As to conditions: male, Sprague-Dawley, rat, plasma, rats, 40 mg/kg. On the procedure:
Male Sprague–Dawley rats (body weight 200 ± 20 g) were randomly divided into three groups (n = 3). Sprague–Dawley rats (200 ± 20 g) were obtained from Animal Experiment Center of Shanghai Institute of Material Medica, Shanghai, China. All animal experiments were performed by strictly following Institutional Animal Care and Use Committee (IACUC) guidelines (71044, 10 August 2019). Prior to the experiments, the rats were fasted overnight with free access to water. Aqueous suspensions of IMC, SDs with MSNs (F3), SDs with MSNs and Kollicoat IR (F6), and SDs with MSNs and HPMC (F9) at 40 mg/kg were orally administered, respectively, and blood samples (0.5 mL) were collected at different time points (0, 0.5, 1, 2, 4, 6, 8, 12, and 24 h) in microcentrifuge tubes containing heparin by retro-orbital venipuncture technique. The blood samples were immediately centrifuged at 4000 rpm for 10 min, and the supernatant was collected for further processing.
Plasma samples were processed as follows: 200 µL plasma samples were mixed with 20 µL of an internal standard solution (0.5 mg/mL naproxen), 90 µL 10% KH2PO4, and 1 mL dichloromethane, and then the mixture was vortexed for 3 min. Then, the mixture solutions were centrifuged at 10,000 rpm for 4 min, the organic layer was remained, and then the organic layer was evaporated in a gentle stream of nitrogen at room temperature. The residue was suspended in 100 µL of the mobile phase (acetonitrile:0.01 M H3PO4 = 55:45). After vortex mixing and centrifugation, samples were analyzed using HPLC.

The conditions of data set [4]: based on Equations (6) and (7); cited from earlier work.

`COc1ccc2c(c1)c(CC(=O)O)c(C)n2C(=O)c1ccc(Cl)cc1` [IMC, Indomethacin]: the concentration in solution in data set [1] (solubility at 48 h) came to 23 µg/mL (≈ 64.3 µM). In addition, the “Folds (increase of cumulative dissolution rate compared to pure IMC)” value in data set [2] was 1.00 ± 0.28 folds. In addition, the “Cumulative Drug Dissolution Rate (%)” value in data set [2] (37 °C, 100 rpm, mean ± SD, n = 3) was 27.43 ± 0.96%. Besides, in data set [3], the time to peak (Tmax) amounted to 4 h. In data set [3] (mean ± SD, n = 3), this compound registered an exposure AUC(0-t) of 1240 ± 189 µg·h/mL and a Cmax of 125 ± 3.8 µg/mL. The “Hansen solubility parameter δ” value in data set [4] is listed as 24.8 MPa^1/2.
